Numbers after ± are expanded uncertainties.
What was measured:
[1] = xn = mol fraction of the nth substance listed; conditions: 100 kPa, Liquid, Vibrating tube method, x1 = 0.52
[2] = refractive index (Na D-line) (dimensionless); xn = mol fraction of the nth substance listed; conditions: 293.15 K; 100 kPa; Liquid; Standard Abbe refractometry; x1 = 0.52

Q: For `C[C@@H]1CC[C@H](C)O1` [cis-2,5-dimethyltetrahydrofuran] + C[C@@H]1CC[C@@H](C)O1, which mass density ([1]; 273.15 K) is on record?
A: The mass density was 848.22 ± 2.3 kg/m3.

Q: What about the mass density ([1]; 283.15 K) of the same compound?
A: The mass density was 838.53 ± 2.3 kg/m3.

Q: And the mass density ([1]; 293.15 K)?
A: Its mass density is 828.71 ± 2.3 kg/m3.

Q: And the mass density ([1]; 298.15 K)?
A: The mass density was 823.89 ± 2.3 kg/m3.

Q: What about the mass density ([1]; 303.15 K) of the same compound?
A: The mass density was 818.91 ± 2.3 kg/m3.

Q: And the refractive index [2]?
A: The refractive index was 1.4043 ± 0.0004.
